Measured values taken from patent publication US20260049088A1, “TRICYCLIC HETEROCYCLIC DERIVATIVES, COMPOSITIONS AND USES THEREOF” (Danatlas Pharmaceuticals Co., Ltd., priority 2023, published 2026).

Target: T1, hPARG (Homo sapiens, UniProt Q86W56)
T1 construct: made in house; host or cells: E. coli
Experiment: PARG enzymatic activity assay (HTRF)
Assay type: biochemical
Details: C-terminal His6-tag hPARG 65 pM, biotinylated-NAD ribosylated PARP1 substrate 8 nM
Procedure: HTRF assay was used to measure the ability of compounds to inhibit the activity of […] in vitro. C-terminal His6—tag PARG expressed in E. coli was purified and stored at −80° C. in aliquots. Assay measurements were performed with 1×buffer comprising 50 mM Tris pH 7.4, 0.1 mg/mL BSA, 3 mM EDTA, 0.4 mM EGTA, 1 mM DTT, 50 mM KCl and 0.01% Tween 20. Compounds dissolved in DMSO were plated into a 384-well assay plate (PerkinElmer, Catalog #: 6008280) in duplicate using a dispenser (Labcyte, Echo 665), and tested on a 10-point 4-fold serial dilution. Add 5 μL Enzyme mix [hPARG (C-terminal His6—tag, 4.2 μM), 65 pM final] to the test wells. The plates were covered and left to incubate for 60 minutes at RT before the addition of 5 μL substrate mix [biotinylated-NAD ribosylated PARP1 (6.1 μM), 8 nM final] to initiate reaction. After incubating 10 minutes at RT, add 2.5 μL Streptavidin-Eu cryptate (Cisbio, Catalog #: 610SAKLA) and 2.5 μL Mab anti 6HIS-XL665 (Cisbio, Catalog #: 61HISXLA) to the plate, and incubate for 60 minutes at RT. Read on a multimode plate reader (PerkinElmer, Envision 2015) in time-resolved fluorescence (TRF) mode, with excitation at 337 nm and emission at both 620 nm and 665 nm. Average HTRF signal of high control (Wells with 1% DMSO) was calculated and as Vehicle Control (VC). Average HTRF signal of low control (no Enzyme) was calculated and as Positive control (PC).
IC50 values were determined by fitting the data to the standard 4 parameters with Hill Slope using GraphPad Prism software.

T1 sequence (Q86W56 whole entry): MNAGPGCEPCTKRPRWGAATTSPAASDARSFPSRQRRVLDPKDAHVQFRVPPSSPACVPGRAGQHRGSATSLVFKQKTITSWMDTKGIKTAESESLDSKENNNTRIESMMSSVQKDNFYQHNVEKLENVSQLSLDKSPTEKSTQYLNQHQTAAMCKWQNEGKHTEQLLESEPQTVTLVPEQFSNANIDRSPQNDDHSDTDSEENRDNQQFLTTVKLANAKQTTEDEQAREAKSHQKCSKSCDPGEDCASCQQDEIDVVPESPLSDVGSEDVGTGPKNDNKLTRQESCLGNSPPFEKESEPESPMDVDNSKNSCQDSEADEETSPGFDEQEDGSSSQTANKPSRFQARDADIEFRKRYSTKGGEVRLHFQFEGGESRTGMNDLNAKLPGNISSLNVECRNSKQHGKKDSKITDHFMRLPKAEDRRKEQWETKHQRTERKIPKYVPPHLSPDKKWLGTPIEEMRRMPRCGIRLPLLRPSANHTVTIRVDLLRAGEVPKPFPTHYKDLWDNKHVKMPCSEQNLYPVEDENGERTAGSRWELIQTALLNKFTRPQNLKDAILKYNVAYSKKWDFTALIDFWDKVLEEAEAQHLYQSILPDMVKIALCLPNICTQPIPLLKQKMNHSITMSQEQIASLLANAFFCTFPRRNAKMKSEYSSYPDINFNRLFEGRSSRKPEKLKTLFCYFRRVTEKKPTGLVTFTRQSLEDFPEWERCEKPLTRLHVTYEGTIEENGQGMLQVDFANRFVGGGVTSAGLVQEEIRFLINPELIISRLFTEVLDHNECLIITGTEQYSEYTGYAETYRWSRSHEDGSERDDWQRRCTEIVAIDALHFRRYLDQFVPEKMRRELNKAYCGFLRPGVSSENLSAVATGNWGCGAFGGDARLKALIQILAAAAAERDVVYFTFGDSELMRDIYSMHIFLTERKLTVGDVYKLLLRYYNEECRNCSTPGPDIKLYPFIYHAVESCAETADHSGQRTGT

Row | Compound | IC50 [nM]
1 | N#CC1(NS(=O)(=O)c2ccc3c4c(OCCN5CCOCC5)ncnc4n(-c4nnc(C(F)F)s4)c3c2)CC1 [Example 1, N-(1-Cyanocyclopropyl)-9-(5-(difluoromethyl)-1,3,4-thiadiazol-2-yl)-4-(2-morpholinoethoxy)-9H-pyrimido[4,5-b]indole-7-sulfonamide] | ≤ 100
2 | N#CC1(NS(=O)(=O)c2ccc3c4c(OCCCN5CCOCC5)ncnc4n(-c4nnc(C(F)F)s4)c3c2)CC1 [Example 2, N-(1-Cyanocyclopropyl)-9-(5-(difluoromethyl)-1,3,4-thiadiazol-2-yl)-4-(3-morpholinopropoxy)-9H-pyrimido[4,5-b]indole-7-sulfonamide] | ≤ 100
3 | N#CC1(NS(=O)(=O)c2ccc3c4c(OCCCCN5CCOCC5)ncnc4n(-c4nnc(C(F)F)s4)c3c2)CC1 [Example 3, N-(1-Cyanocyclopropyl)-9-(5-(difluoromethyl)-1,3,4-thiadiazol-2-yl)-4-(4-morpholinobutoxy)-9H-pyrimido[4,5-b]indole-7-sulfonamide] | ≤ 100
4 | CC(C)C(=O)N1CCN(CCOc2ncnc3c2c2ccc(S(=O)(=O)NC4(C#N)CC4)cc2n3-c2nnc(C(F)F)s2)CC1 [Example 4, N-(1-Cyanocyclopropyl)-9-(5-(difluoromethyl)-1,3,4-thiadiazol-2-yl)-4-(2-(4-isobutyrylpiperazin-1-yl)ethoxy)-9H-pyrimido[4,5-b]indole-7-sulfonamide] | ≤ 100
5 | CN(C)C(=O)N1CCN(CCOc2ncnc3c2c2ccc(S(=O)(=O)NC4(C#N)CC4)cc2n3-c2nnc(C(F)F)s2)CC1 [Example 5, 4-(2-((7-(N-(1-Cyanocyclopropyl)sulfamoyl)-9-(5-(difluoromethyl)-1,3,4-thiadiazol-2-yl)-9H-pyrimido[4,5-b]indol-4-yl)oxy)ethyl)-N,N-dimethylpiperazine-1-carboxamide] | ≤ 100
6 | CN(C)C(=O)COc1ncnc2c1c1ccc(S(=O)(=O)NC3(C#N)CC3)cc1n2-c1nnc(C(F)F)s1 [Example 6, 2-((7-(N-(1-Cyanocyclopropyl)sulfamoyl)-9-(5-(difluoromethyl)-1,3,4-thiadiazol-2-yl)-9H-pyrimido[4,5-b]indol-4-yl)oxy)-N,N-dimethylacetamide] | 100 to 1000
7 | N#CC1(NS(=O)(=O)c2ccc3c4c(O[C@H]5CCOC5)ncnc4n(-c4nnc(C(F)F)s4)c3c2)CC1 [Example 7, (S)-N-(1-Cyanocyclopropyl)-9-(5-(difluoromethyl)-1,3,4-thiadiazol-2-yl)-4-((tetrahydrofuran-3-yl)oxy)-9H-pyrimido[4,5-b]indole-7-sulfonamide] | ≤ 100
8 | N#CC1(NS(=O)(=O)c2ccc3c4c(O[C@@H]5CCOC5)ncnc4n(-c4nnc(C(F)F)s4)c3c2)CC1 [Example 8, (R)-N-(1-Cyanocyclopropyl)-9-(5-(difluoromethyl)-1,3,4-thiadiazol-2-yl)-4-((tetrahydrofuran-3-yl)oxy)-9H-pyrimido[4,5-b]indole-7-sulfonamide] | ≤ 100
9 | N#CC1(NS(=O)(=O)c2ccc3c4c(OCC5CCOC5)ncnc4n(-c4nnc(C(F)F)s4)c3c2)CC1 (stereo not shown) [Example 9, N-(1-Cyanocyclopropyl)-9-(5-(difluoromethyl)-1,3,4-thiadiazol-2-yl)-4-((tetrahydrofuran-3-yl)methoxy)-9H-pyrimido[4,5-b]indole-7-sulfonamide] | ≤ 100
10 | CCN(CC)CCOc1ncnc2c1c1ccc(S(=O)(=O)NC3(C#N)CC3)cc1n2-c1nnc(C(F)F)s1 [Example 10, N-(1-Cyanocyclopropyl)-4-(2-(diethylamino)ethoxy)-9-(5-(difluoromethyl)-1,3,4-thiadiazol-2-yl)-9H-pyrimido[4,5-b]indole-7-sulfonamide] | ≤ 100
11 | N#CC1(NS(=O)(=O)c2ccc3c4c(OCC(=O)N5CCOCC5)ncnc4n(-c4nnc(C(F)F)s4)c3c2)CC1 [Example 11, N-(1-Cyanocyclopropyl)-9-(5-(difluoromethyl)-1,3,4-thiadiazol-2-yl)-4-(2-morpholino-2-oxoethoxy)-9H-pyrimido[4,5-b]indole-7-sulfonamide] | ≤ 100
12 | N#CC1(NS(=O)(=O)c2ccc3c4c(OCCn5cccn5)ncnc4n(-c4nnc(C(F)F)s4)c3c2)CC1 [Example 12, 4-(2-(1H-Pyrazol-1-yl)ethoxy)-N-(1-cyanocyclopropyl)-9-(5-(difluoromethyl)-1,3,4-thiadiazol-2-yl)-9H-pyrimido[4,5-b]indole-7-sulfonamide] | ≤ 100
13 | CN(CCN1CCOCC1)c1ncnc2c1c1ccc(S(=O)(=O)NC3(C#N)CC3)cc1n2-c1nnc(C(F)F)s1 [Example 13, N-(1-cyanocyclopropyl)-9-(5-(difluoromethyl)-1,3,4-thiadiazol-2-yl)-4-(methyl(2-morpholinoethyl)amino)-9H-pyrimido[4,5-b]indole-7-sulfonamide] | ≤ 100
14 | CN(C)c1ncnc2c1c1ccc(S(=O)(=O)NC3(C#N)CC3)cc1n2-c1nnc(C(F)F)s1 [Example 14, N-(1-Cyanocyclopropyl)-9-(5-(difluoromethyl)-1,3,4-thiadiazol-2-yl)-4-(dimethylamino)-9H-pyrimido[4,5-b]indole-7-sulfonamide] | ≤ 100
15 | CCN(CC)CCN(C)c1ncnc2c1c1ccc(S(=O)(=O)NC3(C#N)CC3)cc1n2-c1nnc(C(F)F)s1 [Example 15, N-(1-Cyanocyclopropyl)-4-((2-(diethylamino)ethyl)(methyl)amino)-9-(5-(difluoromethyl)-1,3,4-thiadiazol-2-yl)-9H-pyrimido[4,5-b]indole-7-sulfonamide] | ≤ 100
16 | N#CC1(NS(=O)(=O)c2ccc3c4c(NCCN5CCOCC5)ncnc4n(-c4nnc(C(F)F)s4)c3c2)CC1 [Example 16, N-(1-Cyanocyclopropyl)-9-(5-(difluoromethyl)-1,3,4-thiadiazol-2-yl)-4-((2-morpholinoethyl)amino)-9H-pyrimido[4,5-b]indole-7-sulfonamide] | ≤ 100
17 | CN(CCCN1CCOCC1)c1ncnc2c1c1ccc(S(=O)(=O)NC3(C#N)CC3)cc1n2-c1nnc(C(F)F)s1 [Example 17, N-(1-Cyanocyclopropyl)-9-(5-(difluoromethyl)-1,3,4-thiadiazol-2-yl)-4-(methyl(3-morpholinopropyl)amino)-9H-pyrimido[4,5-b]indole-7-sulfonamide] | ≤ 100
18 | CCN(CCN1CCOCC1)c1ncnc2c1c1ccc(S(=O)(=O)NC3(C#N)CC3)cc1n2-c1nnc(C(F)F)s1 [Example 18, N-(1-Cyanocyclopropyl)-9-(5-(difluoromethyl)-1,3,4-thiadiazol-2-yl)-4-(ethyl(2-morpholinoethyl)amino)-9H-pyrimido [4,5-b]indole-7-sulfonamide] | ≤ 100
19 | CN(CC(=O)O)c1ncnc2c1c1ccc(S(=O)(=O)NC3(C#N)CC3)cc1n2-c1nnc(C(F)F)s1 [Example 19, N-(7-(N-(1-Cyanocyclopropyl)sulfamoyl)-9-(5-(difluoromethyl)-1,3,4-thiadiazol-2-yl)-9H-pyrimido[4,5-b]indol-4-yl)-N-methylglycine] | ≤ 100
20 | CN(CC(=O)N1CCOCC1)c1ncnc2c1c1ccc(S(=O)(=O)NC3(C#N)CC3)cc1n2-c1nnc(C(F)F)s1 [Example 20, N-(1-Cyanocyclopropyl)-9-(5-(difluoromethyl)-1,3,4-thiadiazol-2-yl)-4-(methyl(2-morpholino-2-oxoethyl)amino)-9H-pyrimido[4,5-b]indole-7-sulfonamide] | ≤ 100
21 | CN(Cc1ccncc1)c1ncnc2c1c1ccc(S(=O)(=O)NC3(C#N)CC3)cc1n2-c1nnc(C(F)F)s1 [Example 21, N-(1-Cyanocyclopropyl)-9-(5-(difluoromethyl)-1,3,4-thiadiazol-2-yl)-4-(methyl(pyridin-4-ylmethyl)amino)-9H-pyrimido[4,5-b]indole-7-sulfonamide] | ≤ 100
22 | CN(Cc1ccccn1)c1ncnc2c1c1ccc(S(=O)(=O)NC3(C#N)CC3)cc1n2-c1nnc(C(F)F)s1 [Example 22, N-(1-Cyanocyclopropyl)-9-(5-(difluoromethyl)-1,3,4-thiadiazol-2-yl)-4-(methyl(pyridin-2-ylmethyl)amino)-9H-pyrimido[4,5-b]indole-7-sulfonamide] | 100 to 1000
23 | CN(CC1CCOC1)c1ncnc2c1c1ccc(S(=O)(=O)NC3(C#N)CC3)cc1n2-c1nnc(C(F)F)s1 (stereo not shown) [Example 23, N-(1-Cyanocyclopropyl)-9-(5-(difluoromethyl)-1,3,4-thiadiazol-2-yl)-4-(methyl((tetrahydrofuran-3-yl)methyl)amino)-9H-pyrimido[4,5-b]indole-7-sulfonamide] | ≤ 100
24 | CN(CCn1cccn1)c1ncnc2c1c1ccc(S(=O)(=O)NC3(C#N)CC3)cc1n2-c1nnc(C(F)F)s1 [Example 24, 4-((2-(1H-Pyrazol-1-yl)ethyl)(methyl)amino)-N-(1-cyanocyclopropyl)-9-(5-(difluoromethyl)-1,3,4-thiadiazol-2-yl)-9H-pyrimido[4,5-b]indole-7-sulfonamide] | 100 to 1000
25 | CSc1ncnc2c1c1ccc(S(=O)(=O)NC3(C#N)CC3)cc1n2-c1nnc(C(F)F)s1 [Example 25, N-(1-cyanocyclopropyl)-9-(5-(difluoromethyl)-1,3,4-thiadiazol-2-yl)-4-(methylthio)-9H-pyrimido[4,5-b]indole-7-sulfonamide] | ≤ 100
